Here are results for 2 compounds from publication PMC10291552, “Computational Design, Synthesis, and Biological Evaluation of Diimidazole Analogues Endowed with Dual PCSK9/HMG-CoAR-Inhibiting Activity” (Journal of Medicinal Chemistry, 2023).

In data set [1] the target is T1, HMG-CoAR (catalytic domain) (Homo sapiens, UniProt P04035).
T1 construct: and finally, HMG-CoAR (catalytic domain) (2 μL); purchased Sigma Aldrich
T1 sequence (P04035 426-888 limits assumed): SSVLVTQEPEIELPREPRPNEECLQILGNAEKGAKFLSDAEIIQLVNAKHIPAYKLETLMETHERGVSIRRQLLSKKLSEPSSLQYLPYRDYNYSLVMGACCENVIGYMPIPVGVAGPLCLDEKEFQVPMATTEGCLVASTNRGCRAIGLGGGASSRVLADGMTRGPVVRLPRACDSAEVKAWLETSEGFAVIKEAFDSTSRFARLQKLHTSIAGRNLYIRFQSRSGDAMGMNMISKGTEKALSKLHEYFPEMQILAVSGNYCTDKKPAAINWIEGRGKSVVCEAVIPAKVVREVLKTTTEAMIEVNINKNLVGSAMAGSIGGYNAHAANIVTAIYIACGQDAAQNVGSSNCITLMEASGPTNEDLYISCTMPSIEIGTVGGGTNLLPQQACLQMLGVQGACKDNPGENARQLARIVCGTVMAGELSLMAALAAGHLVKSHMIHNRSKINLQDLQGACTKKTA
Nature of the data set: HMG-CoAR activity assay (Sigma kit, NADPH oxidation at 340 nm). It counts as biochemical. The following applies: 10–500 μM tested, 37 °C. The protocol: The experiments were carried out following the manufacturer’s instructions and optimized protocol.[43] The assay buffer, NADPH, substrate solution, and HMG-CoAR were provided in the HMG-CoAR Assay Kit (Sigma Aldrich SRL, Milan, Italy). The experiments were carried out following the manufacturer’s instructions at 37 °C. In particular, each reaction (200 μL) was prepared adding the reagents in the following order: 1× assay buffer, a 10–500 μM dose of sonicated Dim analogues or vehicle (C), NADPH (4 μL), the substrate solution (12 μL), and finally, HMG-CoAR (catalytic domain) (2 μL). Subsequently, the samples were mixed, and the absorbance at 340 nm was read by a microplate reader (Synergy H1, Winooski, VT, USA) at times of 0 and 10 min. The HMGCoAR-dependent oxidation of NADPH and the inhibition properties of the peptides were measured by absorbance reduction, which is directly proportional to enzyme activity.

The subject of data set [2] is HepG2 cells. Nature of the data set: HepG2 cell viability (MTT assay). Type of data set: cell-based, human. The conditions noted are these: 48 h treatment, 0.1 nM to 10 μM, versus control cells. The protocol: Figure 3 HepG2 cell viability after the Dim3 (A) and Dim16 (B) treatments. Bar graphs indicating the results of the cell viability assay of HepG2 cells after Dim3 and Dim16 (0.1–10,000 nM) treatment for 48 h. The data points represent the mean ± SD of the three experiments in triplicate. ns: not significant.
The HepG2 cell line was bought from ATCC (HB-8065, ATCC from LGC Standards, Milan, Italy) and cultured in DMEM high glucose with stable L-glutamine supplemented with 10% FBS, 100 U/mL penicillin, and 100 μg/mL streptomycin (complete growth medium) with incubation at 37 °C under a 5% CO2 atmosphere.

Data set [3] relates to LDLR localized on HepG2 surfaces. The data set can be described thus: In-cell Western assay of LDLR on the HepG2 cell surface in the presence of PCSK9. It counts as cell-based, human. The following applies: for LDLR levels on HepG2 surface: co-incubated with PCSK9 4 μg/mL, relative to untreated control cells; for fold more active than Rim13: LDLR restoration and LDL uptake in HepG2 cells, versus Rim13 ref 25. The procedure: For the experiments, a total of 3 × 10^4 HepG2 cells/well were seeded in 96-well plates. The following day, the cells were washed with PBS and then starved overnight (O/N) in DMEM without FBS and antibiotics. After starvation, the HepG2 cells were treated with 4.0 μg/mL PCSK9-WT and 4.0 μg/mL PCSK9 + diimidazole analogues and vehicle (H2O) for 2 h at 37 °C under a 5% CO2 atmosphere. Subsequently, they were fixed in 4% paraformaldehyde for 20 min at room temperature (RT). Cells were washed 5 times with 100 μL of PBS/well (each wash was for 5 min at RT), and the endogenous peroxide activity was quenched by adding 3% H2O2 for 20 min at RT. Non-specific sites were blocked with 100 μL/well of 5% bovine serum albumin (BSA, Sigma) in PBS for 1.5 h at RT. LDLR primary antibody solution (1:3000 in 5% BSA in PBS, 25 μL/well) was incubated O/N at +4 °C. Subsequently, the primary antibody solution was discarded, and each sample was washed 5 times with 100 μL/well of PBS (each wash was for 5 min at RT). Goat anti-rabbit Ig-HRP secondary antibody solution (Santa Cruz) (1:6000 in 5% BSA in PBS, 50 μL/well) was added and incubated 1 h at RT. The secondary antibody solution was washed 5 times with 100 μL/well of PBS (each wash for 5 min at RT). Freshly prepared TMB substrate (Pierce, 100 μL/well) was added, and the plate was incubated at RT until the desired color was developed. The reaction was stopped with 2 M H2SO4, and then the absorbance at 450 nm was measured using a microplate reader (Synergy H1, Winooski, VT, USA). After the reading, the cells were stained by adding 1× Janus Green stain, incubating for 5 min at RT. The dye was removed, and the sample was washed 5 times with water. Afterward, 100 μL of 0.5 M HCl for well was added, and the solution was incubated for 10 min. After 10 s of shaking, the OD at 595 nm was measured using the microplate reader (Synergy H1, Winooski, VT, USA).

Data set [4] has as its system HepG2 cells. The data set can be described thus: Fluorescent LDL uptake by HepG2 cells in the presence of PCSK9. It counts as cell-based, human. The following applies: co-incubated with PCSK9 4 μg/mL, relative to untreated control cells. The protocol: HepG2 cells (3 × 10^4/well) were seeded in 96-well plates and kept in complete growth medium for 2 days before treatment. On the third day, the cells were washed with PBS and then starved overnight (O/N) in DMEM without FBS and antibiotics. After starvation, they were treated with 4.0 μg/mL PCSK9, 4.0 μg/mL PCSK9 + diimidazole analogues, and vehicle (H2O) for 2 h with at 37 °C under a 5% CO2 atmosphere. At the end of the treatment, the culture medium was replaced with 50 μL/well LDL-DyLight 550 working solution (Cayman Chemical Company, Ann Arbor, MI, USA) prepared in DMEM without FBS and antibiotics. The cells were additionally incubated for 2 h at 37 °C, and then the culture medium was aspirated and replaced with PBS (100 μL/well). The degree of LDL uptake was measured using a Synergy H1 fluorescent plate reader (Winooski, VT, USA) (excitation and emission wavelengths of 540 and 570 nm, respectively). Fluorescent LDL uptake was finally assessed following optimized protocol.[14]

Entries after “also recorded” stand apart in the source; their conditions may differ.

For the compound `C#Cc1ncc(-c2ncc(-c3ccc4ccccc4c3)n2CCCC(C)(C)C)n1CCCCCNC` [Dim3, 5-(1-(4,4-Dimethylpentyl)-2′-ethynyl-5-(naphthalen-2-yl)-1H,3′H-[2,4′-biimidazol]-3′-yl)-N-methylpentan-1-amine], the “HMG-CoAR activity IC50” value in data set [1] is “no in vitro inhibitory activity; also recorded: not active”. For the same compound, the HepG2 cell vitality result in the data set on HepG2 cells [2] is “safe for HepG2 cells and safe”. Also, the “LDLR levels on HepG2 surface” value in data set [3] (1 nM) is 77.87 ± 3.04%; in data set [3] (10 nM) it was 101.1 ± 15.06%. Also, the “fold more active than Rim13” value in data set [3] was found to be 100. Further, the LDL uptake in the data set on HepG2 cells [4] (1 nM) is on record as 94.12 ± 10.95%; in the data set with HepG2 cells [4] (10 nM), 103.47 ± 7.34%.
Usually IC50 stands for the concentration that inhibits the measured activity by half. Take `CNCCCCCn1c(-c2ncc(-c3ccc4ccccc4c3)n2CCCC(C)(C)C)cnc1I` [Dim16, 5-(1-(4,4-Dimethylpentyl)-2′-iodo-5-(naphthalen-2-yl)-1H,3′H-[2,4′-biimidazol]-3′-yl)-N-methylpentan-1-amine]: the half-maximal inhibitory concentration (IC50) in data set [1] stood at 147 ± 75.1 µM. Further, in the data set with HepG2 cells [2], the HepG2 cell vitality result was “safe for HepG2 cells and safe”. Besides, the “LDLR levels on HepG2 surface” value in data set [3] (1 nM) is listed as 91.1 ± 2.22%; in data set [3] (10 nM), 87.17 ± 7.42%. Also, the “fold more active than Rim13” value in data set [3] came out at 100. Further, the “fold more effective than Dim3 in restoring LDLR protein level on cell surface” value in data set [3] (cellular level, Figure 4) is listed as 10. In addition, the figures for the LDL uptake in the data set with HepG2 cells [4] (1 nM) and in the data set on HepG2 cells [4] (10 nM) were 81.87 ± 7.45% and 136.47 ± 8.81%, respectively.
